Experimental data published in ChEMBL document CHEMBL4265922, “Synthesis and antiproliferative activity of 6,7-disubstituted-4-phenoxyquinoline derivatives bearing the 1,8-naphthyridin-2-one moiety” (Eur J Med Chem, 2018).

Key:
[1] = molecular target: Hepatocyte growth factor receptor (Homo sapiens, UniProt P08581); assay: Inhibition of c-MET (unknown origin) using FAM-labeled peptide as substrate incubated for 10 mins followed by substrate addition by HTRF assay
[2] = molecular target: Platelet-derived growth factor receptor alpha (Homo sapiens, UniProt P16234); assay: Inhibition of PDGFRalpha (unknown origin) using FAM-labeled peptide as substrate incubated for 10 mins followed by substrate addition by HTRF assay
[3] = molecular target: T1, Receptor-type tyrosine-protein kinase FLT3 (Homo sapiens, UniProt P36888); assay: Inhibition of FLT3 (unknown origin) using FAM-labeled peptide as substrate incubated for 10 mins followed by substrate addition by HTRF assay
T1 sequence (P36888 whole entry): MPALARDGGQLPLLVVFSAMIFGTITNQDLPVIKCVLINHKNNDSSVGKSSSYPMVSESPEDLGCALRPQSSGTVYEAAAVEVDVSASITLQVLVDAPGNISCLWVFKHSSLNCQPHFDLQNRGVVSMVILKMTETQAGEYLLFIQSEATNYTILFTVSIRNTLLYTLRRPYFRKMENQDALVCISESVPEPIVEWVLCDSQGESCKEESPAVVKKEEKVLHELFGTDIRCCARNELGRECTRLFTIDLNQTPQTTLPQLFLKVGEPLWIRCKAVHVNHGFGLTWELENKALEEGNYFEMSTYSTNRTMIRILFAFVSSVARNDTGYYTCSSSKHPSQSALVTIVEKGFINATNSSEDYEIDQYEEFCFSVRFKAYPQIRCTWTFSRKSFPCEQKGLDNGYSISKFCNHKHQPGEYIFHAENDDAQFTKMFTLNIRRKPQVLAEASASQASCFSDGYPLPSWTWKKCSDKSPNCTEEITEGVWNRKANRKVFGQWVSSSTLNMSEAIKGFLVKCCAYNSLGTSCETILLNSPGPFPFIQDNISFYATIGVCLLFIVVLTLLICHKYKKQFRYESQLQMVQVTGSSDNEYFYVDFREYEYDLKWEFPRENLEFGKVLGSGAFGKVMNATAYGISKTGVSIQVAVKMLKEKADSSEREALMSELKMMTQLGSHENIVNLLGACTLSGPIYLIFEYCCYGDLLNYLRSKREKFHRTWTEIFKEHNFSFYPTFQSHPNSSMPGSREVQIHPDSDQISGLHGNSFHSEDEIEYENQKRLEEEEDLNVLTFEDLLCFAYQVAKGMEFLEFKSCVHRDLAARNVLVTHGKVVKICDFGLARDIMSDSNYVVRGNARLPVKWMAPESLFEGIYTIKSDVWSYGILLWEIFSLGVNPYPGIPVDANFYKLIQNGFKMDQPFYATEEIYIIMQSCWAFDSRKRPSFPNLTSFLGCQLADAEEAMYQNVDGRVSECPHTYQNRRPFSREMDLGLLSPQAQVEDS

[4] = molecular target: Mast/stem cell growth factor receptor Kit (Homo sapiens, UniProt P10721); assay: Inhibition of c-KIT (unknown origin) using FAM-labeled peptide as substrate incubated for 10 mins followed by substrate addition by HTRF assay
[5] = molecular target: Platelet-derived growth factor receptor beta (Homo sapiens, UniProt P09619); assay: Inhibition of PDGFRbeta (unknown origin) using FAM-labeled peptide as substrate incubated for 10 mins followed by substrate addition by HTRF assay
[6] = molecular target: Vascular endothelial growth factor receptor 3 (Homo sapiens, UniProt P35916); assay: Inhibition of FLT4 (unknown origin) using FAM-labeled peptide as substrate incubated for 10 mins followed by substrate addition by HTRF assay
[7] = molecular target: ALK tyrosine kinase receptor (Homo sapiens, UniProt Q9UM73); assay: Inhibition of ALK (unknown origin) using FAM-labeled peptide as substrate incubated for 10 mins followed by substrate addition by HTRF assay
[8] = molecular target: Epidermal growth factor receptor (Homo sapiens, UniProt P00533); assay: Inhibition of EGFR (unknown origin) using FAM-labeled peptide as substrate incubated for 10 mins followed by substrate addition by HTRF assay
HepG2 [9] = assay: cells; settings: Homo sapiens, HepG2, 72 h
MCF7 = assay: cells; settings: Homo sapiens, MCF7, 72 h
A549 = assay: cells; settings: Homo sapiens, A549, 72 h
Description: Antiproliferative activity against human A549 cells after 72 hrs by MTT assay

HepG2 [10] = assay: Induction of apoptosis in human HepG2 cells assessed as viable cells at 0.5 uM after 48 hrs by Annexin V-FITC/PI staining based flow cytometry (reference value: 91.69%); assay type: functional; settings: HepG2, 48 h, read-out: Activity
HepG2 [11] = assay: Induction of apoptosis in human HepG2 cells assessed as early apoptotic cells at 0.5 uM after 48 hrs by Annexin V-FITC/PI staining based flow cytometry (reference value: 2.97%); assay type: functional
HepG2 [12] = assay: Induction of apoptosis in human HepG2 cells assessed as late apoptotic cells at 0.5 uM after 48 hrs by Annexin V-FITC/PI staining based flow cytometry (reference value: 3.53%); assay type: functional
HepG2 [13] = assay: Induction of apoptosis in human HepG2 cells assessed as necrotic cells at 0.5 uM after 48 hrs by Annexin V-FITC/PI staining based flow cytometry (reference value: 1.81%); assay type: functional

Hepatocyte growth factor receptor, sequence (P08581 whole entry): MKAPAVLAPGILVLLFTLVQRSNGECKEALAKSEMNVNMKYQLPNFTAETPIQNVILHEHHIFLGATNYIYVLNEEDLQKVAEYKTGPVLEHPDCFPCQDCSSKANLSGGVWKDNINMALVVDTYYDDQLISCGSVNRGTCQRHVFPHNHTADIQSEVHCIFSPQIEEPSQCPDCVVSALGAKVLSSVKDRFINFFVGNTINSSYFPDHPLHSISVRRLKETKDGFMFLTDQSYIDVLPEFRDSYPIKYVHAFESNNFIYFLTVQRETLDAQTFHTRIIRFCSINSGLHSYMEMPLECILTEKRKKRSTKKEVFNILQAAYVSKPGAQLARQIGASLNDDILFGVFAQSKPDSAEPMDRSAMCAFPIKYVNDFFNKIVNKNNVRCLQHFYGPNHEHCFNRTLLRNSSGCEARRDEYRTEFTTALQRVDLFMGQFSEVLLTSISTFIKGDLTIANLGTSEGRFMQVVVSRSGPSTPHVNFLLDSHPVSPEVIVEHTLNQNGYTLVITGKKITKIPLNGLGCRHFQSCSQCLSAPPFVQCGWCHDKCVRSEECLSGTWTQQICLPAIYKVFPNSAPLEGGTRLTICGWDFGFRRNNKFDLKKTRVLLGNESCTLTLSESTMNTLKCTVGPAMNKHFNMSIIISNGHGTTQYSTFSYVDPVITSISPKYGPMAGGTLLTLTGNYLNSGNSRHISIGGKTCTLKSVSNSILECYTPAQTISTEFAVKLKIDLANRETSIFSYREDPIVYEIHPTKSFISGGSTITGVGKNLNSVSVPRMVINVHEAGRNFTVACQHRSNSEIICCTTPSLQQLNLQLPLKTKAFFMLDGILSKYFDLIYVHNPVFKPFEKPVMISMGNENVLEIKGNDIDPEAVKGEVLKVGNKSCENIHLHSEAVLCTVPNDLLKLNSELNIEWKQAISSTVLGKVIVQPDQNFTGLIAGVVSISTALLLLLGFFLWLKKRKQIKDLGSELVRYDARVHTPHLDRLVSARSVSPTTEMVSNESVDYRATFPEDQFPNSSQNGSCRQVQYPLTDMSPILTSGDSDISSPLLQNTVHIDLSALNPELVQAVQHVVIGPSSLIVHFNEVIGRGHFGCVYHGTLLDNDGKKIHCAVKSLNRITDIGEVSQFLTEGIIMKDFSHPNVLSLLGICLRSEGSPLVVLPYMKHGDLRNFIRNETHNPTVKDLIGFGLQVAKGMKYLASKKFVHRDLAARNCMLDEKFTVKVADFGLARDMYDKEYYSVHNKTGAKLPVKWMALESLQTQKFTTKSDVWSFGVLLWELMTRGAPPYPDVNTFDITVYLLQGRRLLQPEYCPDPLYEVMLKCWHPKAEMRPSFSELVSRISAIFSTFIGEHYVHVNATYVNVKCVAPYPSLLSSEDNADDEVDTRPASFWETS
Platelet-derived growth factor receptor alpha, sequence (P16234 whole entry): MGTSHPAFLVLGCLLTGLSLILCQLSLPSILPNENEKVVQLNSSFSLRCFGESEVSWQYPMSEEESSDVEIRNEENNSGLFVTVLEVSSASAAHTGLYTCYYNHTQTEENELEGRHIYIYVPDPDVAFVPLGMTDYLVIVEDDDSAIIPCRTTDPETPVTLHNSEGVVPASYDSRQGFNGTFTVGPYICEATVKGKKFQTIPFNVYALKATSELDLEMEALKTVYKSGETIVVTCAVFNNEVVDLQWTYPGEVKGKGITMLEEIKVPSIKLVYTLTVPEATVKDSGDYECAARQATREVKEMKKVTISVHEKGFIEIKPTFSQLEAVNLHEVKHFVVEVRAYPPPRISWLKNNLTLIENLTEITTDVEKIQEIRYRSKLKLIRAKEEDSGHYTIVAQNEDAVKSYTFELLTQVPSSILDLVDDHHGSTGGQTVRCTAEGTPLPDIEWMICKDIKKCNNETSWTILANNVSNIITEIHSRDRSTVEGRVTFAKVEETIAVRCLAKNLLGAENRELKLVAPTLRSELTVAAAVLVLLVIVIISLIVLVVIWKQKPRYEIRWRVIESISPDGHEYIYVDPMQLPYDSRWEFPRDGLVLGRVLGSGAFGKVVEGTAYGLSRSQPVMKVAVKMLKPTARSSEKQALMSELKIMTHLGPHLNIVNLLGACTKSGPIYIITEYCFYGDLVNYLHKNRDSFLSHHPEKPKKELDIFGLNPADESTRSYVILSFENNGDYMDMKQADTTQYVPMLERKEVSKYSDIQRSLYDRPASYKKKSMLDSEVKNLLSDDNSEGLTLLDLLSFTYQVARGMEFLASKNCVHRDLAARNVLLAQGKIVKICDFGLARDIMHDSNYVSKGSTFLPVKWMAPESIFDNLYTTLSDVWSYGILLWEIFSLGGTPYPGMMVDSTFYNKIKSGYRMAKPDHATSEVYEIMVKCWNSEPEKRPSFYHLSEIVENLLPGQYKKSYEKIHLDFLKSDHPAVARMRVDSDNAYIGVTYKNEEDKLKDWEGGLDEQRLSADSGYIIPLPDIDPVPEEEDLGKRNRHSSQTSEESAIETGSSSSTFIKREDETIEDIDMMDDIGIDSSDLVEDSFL
Vascular endothelial growth factor receptor 3, sequence (P35916 whole entry): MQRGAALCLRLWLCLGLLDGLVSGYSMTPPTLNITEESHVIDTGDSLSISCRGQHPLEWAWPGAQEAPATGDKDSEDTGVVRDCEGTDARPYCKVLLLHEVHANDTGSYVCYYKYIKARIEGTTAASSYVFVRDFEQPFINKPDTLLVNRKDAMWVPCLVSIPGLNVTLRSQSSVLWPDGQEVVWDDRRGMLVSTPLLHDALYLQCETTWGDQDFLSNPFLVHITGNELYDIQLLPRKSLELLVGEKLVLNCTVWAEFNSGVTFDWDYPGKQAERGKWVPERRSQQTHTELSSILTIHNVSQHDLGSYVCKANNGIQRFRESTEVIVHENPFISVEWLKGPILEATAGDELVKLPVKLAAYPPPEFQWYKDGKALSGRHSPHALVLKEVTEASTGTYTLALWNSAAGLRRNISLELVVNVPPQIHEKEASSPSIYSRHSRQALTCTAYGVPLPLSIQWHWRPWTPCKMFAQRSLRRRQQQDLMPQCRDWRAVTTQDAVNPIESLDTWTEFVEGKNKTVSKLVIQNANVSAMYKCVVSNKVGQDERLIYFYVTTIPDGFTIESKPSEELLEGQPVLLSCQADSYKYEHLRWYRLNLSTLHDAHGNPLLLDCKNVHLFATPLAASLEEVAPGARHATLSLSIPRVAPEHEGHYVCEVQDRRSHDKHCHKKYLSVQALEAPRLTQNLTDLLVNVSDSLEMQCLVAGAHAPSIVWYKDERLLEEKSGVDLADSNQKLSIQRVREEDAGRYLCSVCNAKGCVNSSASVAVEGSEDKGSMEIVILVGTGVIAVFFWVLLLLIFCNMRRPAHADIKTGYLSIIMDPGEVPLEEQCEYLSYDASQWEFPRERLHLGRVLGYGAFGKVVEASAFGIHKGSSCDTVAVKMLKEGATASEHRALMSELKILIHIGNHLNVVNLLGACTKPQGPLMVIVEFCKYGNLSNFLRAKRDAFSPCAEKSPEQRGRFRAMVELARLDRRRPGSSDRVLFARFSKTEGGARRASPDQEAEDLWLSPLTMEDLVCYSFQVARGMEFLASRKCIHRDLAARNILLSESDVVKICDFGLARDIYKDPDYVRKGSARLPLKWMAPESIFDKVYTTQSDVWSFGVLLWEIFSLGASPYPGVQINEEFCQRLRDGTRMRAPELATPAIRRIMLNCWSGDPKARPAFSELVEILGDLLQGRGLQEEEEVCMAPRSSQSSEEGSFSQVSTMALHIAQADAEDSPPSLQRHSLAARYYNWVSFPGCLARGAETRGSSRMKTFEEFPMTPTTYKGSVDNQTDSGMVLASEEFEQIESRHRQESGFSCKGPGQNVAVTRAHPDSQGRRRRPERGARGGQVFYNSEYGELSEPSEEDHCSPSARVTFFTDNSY
Platelet-derived growth factor receptor beta, sequence (P09619 whole entry): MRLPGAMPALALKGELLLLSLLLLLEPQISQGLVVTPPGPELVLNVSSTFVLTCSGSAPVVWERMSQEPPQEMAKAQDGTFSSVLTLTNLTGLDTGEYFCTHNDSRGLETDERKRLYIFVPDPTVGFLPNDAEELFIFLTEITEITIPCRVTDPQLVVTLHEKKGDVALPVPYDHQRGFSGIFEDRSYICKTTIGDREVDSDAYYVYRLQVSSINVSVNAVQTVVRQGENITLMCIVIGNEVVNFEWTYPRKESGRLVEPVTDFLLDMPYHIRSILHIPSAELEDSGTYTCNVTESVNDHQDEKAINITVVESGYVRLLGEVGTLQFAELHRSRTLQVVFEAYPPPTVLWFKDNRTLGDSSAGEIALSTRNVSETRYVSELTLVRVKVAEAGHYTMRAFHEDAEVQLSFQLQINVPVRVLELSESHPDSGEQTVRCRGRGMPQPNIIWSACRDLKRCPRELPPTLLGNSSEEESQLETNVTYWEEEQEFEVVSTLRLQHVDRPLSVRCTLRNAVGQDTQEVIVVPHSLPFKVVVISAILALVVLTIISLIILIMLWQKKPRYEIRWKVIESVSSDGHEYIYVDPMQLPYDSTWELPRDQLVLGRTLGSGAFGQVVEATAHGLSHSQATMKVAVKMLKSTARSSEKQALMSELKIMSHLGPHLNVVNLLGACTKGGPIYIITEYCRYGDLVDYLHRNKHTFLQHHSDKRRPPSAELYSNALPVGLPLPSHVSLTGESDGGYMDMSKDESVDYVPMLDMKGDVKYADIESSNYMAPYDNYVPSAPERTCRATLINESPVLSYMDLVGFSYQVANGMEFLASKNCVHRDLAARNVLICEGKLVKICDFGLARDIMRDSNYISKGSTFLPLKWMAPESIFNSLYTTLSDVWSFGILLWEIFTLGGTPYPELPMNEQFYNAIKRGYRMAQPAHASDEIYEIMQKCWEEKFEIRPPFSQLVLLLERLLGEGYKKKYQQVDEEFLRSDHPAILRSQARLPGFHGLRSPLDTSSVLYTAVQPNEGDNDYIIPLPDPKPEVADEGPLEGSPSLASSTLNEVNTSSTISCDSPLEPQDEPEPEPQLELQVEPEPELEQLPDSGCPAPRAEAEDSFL

| Structure (SMILES) | IC50 [1] [µM] | IC50 (HepG2 [9]) [µM] | IC50 (MCF7) [µM] | IC50 (A549) [µM] | also measured |
| --- | --- | --- | --- | --- | --- |
| COc1cc2c(Oc3ccc(NC(=O)c4cc5cccnc5n(-c5ccc(F)cc5)c4=O)cc3F)ccnc2cc1OCCCN1CCN(C)CC1 | 0.00236 |  |  |  | IC50 [2]: 0.00435 µM; IC50 [3]: 0.00531 µM; IC50 [4]: 0.0101 µM; IC50 [5]: 0.0195 µM; IC50 [6]: 0.183 µM; IC50 [7]: 0.2 µM; IC50 [8]: > 10 µM |
| COc1cc2c(Oc3ccc(NC(=O)c4cc5cccnc5n(-c5ccc(F)cc5)c4=O)cc3F)ccnc2cc1OCCCN1CCOCC1 | 0.00797 | 0.76 | 1.78 | 2.41 |  |
| COc1cc2c(Oc3ccc(NC(=O)c4cc5cccnc5n(-c5ccc(Br)cc5F)c4=O)cc3F)ccnc2cc1OCCCN1CCN(C)CC1 | 0.00641 |  |  |  |  |
| COc1cc2c(Oc3ccc(NC(=O)c4cc5cccnc5n(-c5ccc(Br)cc5F)c4=O)cc3F)ccnc2cc1OCCCN1CCC(C)CC1 | 0.0383 |  |  |  |  |
| COc1ccc(-n2c(=O)c(C(=O)Nc3ccc(Oc4ccnc5cc(OCCCN6CCOCC6)c(OC)cc45)c(F)c3)cc3cccnc32)cc1 |  | 9.16 | 10.5 | 19.5 |  |
| COc1cc2c(Oc3ccc(NC(=O)c4cc5cccnc5n(-c5ccccc5)c4=O)cc3F)ccnc2cc1OCCCN1CCOCC1 |  | 11.6 | > 40 | 16.8 |  |
| COc1cc2c(Oc3ccc(NC(=O)c4cc5cccnc5n(-c5ccc(Br)cc5)c4=O)cc3F)ccnc2cc1OCCCN1CCCCC1 | 0.0292 |  |  |  |  |
| COc1cc2c(Oc3ccc(NC(=O)c4cc5cccnc5n(-c5ccc(Br)cc5)c4=O)cc3F)ccnc2cc1OCCCN1CCOCC1 | 0.0101 | 1.98 | 0.61 | 4.17 |  |
| COc1cc2c(Oc3ccc(NC(=O)c4cc5cccnc5n(-c5ccc(Cl)cc5)c4=O)cc3F)ccnc2cc1OCCCN1CCOCC1 |  | > 40 | 3.21 | 4.23 |  |
| COc1cc2c(Oc3ccc(NC(=O)c4cc5cccnc5n(-c5ccc(Br)cc5F)c4=O)cc3F)ccnc2cc1OCCCN1CCOCC1 |  | > 40 | 9.75 | > 40 |  |
| COc1cc2c(Oc3ccc(NC(=O)c4cc5cccnc5n(-c5ccc(F)cc5)c4=O)cc3F)ccnc2cc1OCCCN1CCCCC1 | 0.00286 |  |  |  |  |
| COc1cc2c(Oc3ccc(NC(=O)c4cc5cccnc5n(-c5ccc(C(F)(F)F)cc5Cl)c4=O)cc3F)ccnc2cc1OCCCN1CCOCC1 |  | 4.17 | 9.41 | 4.19 |  |
| COc1cc2c(Oc3ccc(NC(=O)c4cc5cccnc5n(-c5ccc(F)cc5)c4=O)cc3F)ccnc2cc1OCCCN1CCC(C)CC1 | 0.0318 |  |  |  |  |
| COc1cc2c(Oc3ccc(NC(=O)c4cc5cccnc5n(-c5ccc(F)c(Cl)c5)c4=O)cc3F)ccnc2cc1OCCCN1CCOCC1 |  | 9.68 | 1.12 | > 40 |  |
| COc1cc2c(Oc3ccc(NC(=O)C4(C(=O)Nc5ccc(F)cc5)CC4)cc3F)ccnc2cc1OCCCN1CCOCC1 [FORETINIB] |  |  |  |  | viability at 0.5 µM (HepG2 [10]): 72.5%; Activity (HepG2 [11]): 18.51%; Activity (HepG2 [12]): 8.36%; Activity (HepG2 [13]): 0.64% |
